Here are results for three molecules from patent US4877785A, “Non-peptidyl beta-succinamidoacyl aminodiols as anti-hypertensive agents” (G. D. Searle & Co., priority 1987, dated 1989).

pIC50: −log10 of the molar value. Where a SMILES comes first, the peptide text is derived from it. [ ]: non-standard residue; d: D form. The star is where a group is joined. Sta = CC(C)C[C@H](N)[C@@H](O)CC(=O)O; Isovaleryl = CC(C)CC(=O)*

One test addresses T1, Human renin (Homo sapiens, UniProt P00797).
T1 construct: purchased National Institute for Biological Standards, London
T1 sequence (P00797 67-406): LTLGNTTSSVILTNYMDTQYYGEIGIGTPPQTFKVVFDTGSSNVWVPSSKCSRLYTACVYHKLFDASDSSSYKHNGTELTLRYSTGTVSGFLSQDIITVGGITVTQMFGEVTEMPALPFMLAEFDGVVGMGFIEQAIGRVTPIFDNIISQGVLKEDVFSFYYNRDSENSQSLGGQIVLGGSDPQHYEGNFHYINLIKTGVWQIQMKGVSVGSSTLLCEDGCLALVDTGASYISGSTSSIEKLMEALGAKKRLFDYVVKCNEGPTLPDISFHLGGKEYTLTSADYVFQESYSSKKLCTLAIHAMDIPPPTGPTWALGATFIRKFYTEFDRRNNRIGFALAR
In words: human renin inhibition test in vitro (angiotensin I determined by radioimmunoassay). The class given is biochemical. Conditions: pH 7.4, 37° C., two hours, human plasma. As for the experimental part: Compounds of Formula I were evaluated as inhibitors of human renin in an in vitro assay, as follows: This human renin inhibition test has been previously described in detail [Papaioannou, et al., Clinical and Experimental Hypertension, A7(9), 1243-1257 (1985)]. Human renin was obtained from the National Institute for Biological Standards, London. In a total volume of 0.25 mL 100 mM Tris-acetate buffer at pH 7.4, 25×10^-6 Goldblatt units of renin, 0.05 mL of plasma from human volunteers taking oral contraceptives, 6.0 mM sodium EDTA, 2.4 mM phenylmethyl sulfonyl fluoride, 1.5 mM 8-hydroxyquinoline, 0.4 mg/mL BSA, and 0.024 mg/mL neomycin sulfate were incubated for two hours at 37° C. in the presence or absence of renin inhibitors. The produced angiotensin I was determined by radioimmunoassay (New England Nuclear kit). Compounds of formula I to be assayed were solubilized in either ethyl alcohol or DMSO and diluted with 100 mM Tris-acetate buffer at pH 7.4 to the appropriate concentration. The final concentration of organic solvent in the reaction mixture was less than 1%. Control incubations at 37° C. were used to correct for effects of organic solvent on renin activity.

In another test the test system is renin. Conditions: cited from earlier work.
The test system of a further test is pepsin. The settings on record: cited from earlier work.
The next test relates to hog renin. The settings on record: after injection of hog renin into nephrectomized rats; cited from earlier work.
The test system of the next test is cathepsin D. The settings on record: cited from earlier work.

Consider `CC(C)C[C@H](O)[C@H](O)[C@H](CC1CCCCC1)NC(=O)C(C)CNC(=O)C(CC(=O)N1CCOCC1)Cc1cccc2ccccc12` (single isomer, unassigned; isomer a) [Example 11], for which the negative-log IC50 (pIC50) – broadly, −log10 of the IC50, conventionally taken in molar units – against Human renin is 6.48.
On to `CC(C)C[C@H](O)[C@H](O)[C@H](CC1CCCCC1)NC(=O)C(C)CNC(=O)C(CC(=O)N1CCOCC1)Cc1cccc2ccccc12` (single isomer, unassigned; isomer b) [Example 13], for which, at Human renin, the pIC50 was 6.00.
As for `CC(C)CC(=O)N[C@H](C(=O)N[C@H](C(=O)N[C@@H](CC(C)C)[C@@H](O)CC(=O)N[C@@H](C)C(=O)N[C@@H](CC(C)C)[C@@H](O)CC(=O)O)C(C)C)C(C)C` [pepstatin] (Isovaleryl-VV[Sta]A[Sta]-OH), in the test on renin, the inhibition of renin entry is listed as “inhibitor”. In addition, the inhibition of pepsin entry with pepsin is “inhibitor”. For the same molecule, in the test on hog renin, the “reduction of blood pressure in vivo” value was “found to reduce blood pressure in vivo”. Also, the “inhibition of cathepsin D” value in the test with cathepsin D was “inhibitor”.
